Experimental findings from US10919923B2, “Organic phosphorus-based compound, and flame retardant and flame-retardant product comprising the same” (TEIJIN LIMITED, priority 2016, dated 2021) are described below.

Holding throughout (assay type): physicochemical
A short description of data set [1]: ΔpH value of filtrate after stirring compound in dispersant solution. The note with it: 1 g compound in 1% phenol type nonionic surfactant solution, |pH1−pH2|. As for the experimental part:
The ΔpH value can be measured by the following method using a commercially available pH measuring instrument. 1 g of a dispersant is added to 99 g of distilled water used for the measurement and stirred to measure the pH of the obtained aqueous solution (the measurement value is designated as pH1). After 1 g of the organic phosphorus-based compound (1) of the present invention is added to the aqueous solution and stirred for 1 minute, the organic phosphorus-based compound (1) is filtered. The pH of the obtained filtrate is measured (the measurement value is designated as pH2). The ΔpH value of the present invention is calculated from the following equation (I). ΔpH value=|pH1−pH2| (I) (vi) Volume Standard Median Diameter, (vii) Maximum Particle Diameter, (viii) Standard Deviation
This was measured by the following method using a pH measuring instrument (HORIBA pH METER D-52 of HORIBA, LTD.). 1 g of a dispersant (phenol type nonionic surfactant) was added to 99 g of distilled water used for the measurement and stirred to measure the pH of the obtained aqueous solution (the measurement value was designated as pH1). After 1 g of the organic phosphorus-based compound was added to the aqueous solution and stirred for 1 minute, the organic phosphorus-based compound was filtered. The pH of the obtained filtrate was measured (the measurement value was designated as pH2). The ΔpH value was calculated from the following equation (I). ΔpH value=|pH1−pH2| (I) (vi) Volume Standard Median Diameter, (vii) Maximum Particle Diameter, (viii) Standard Deviation

Data set [2] is described as follows: Storage stability of processing agent (fire retardant for fibers). On the set-up: key: ◯: no agglomeration and no sedimentation are seen by visual checking; X: agglomeration and sedimentation are seen by visual checking. The conditions noted are these: processing agent with 30 parts compound per 100 parts polyacrylic acid ester emulsion, 25° C. for 24 hours. As for the experimental part: After interior car sheet cloth for automobiles was coated with the following processing liquid, its flame resistance and physical properties were tested. (test cloth): Polyester 100% woven car sheet cloth (weight of 300 g/m^2) was used. (processing agent): This was prepared by adding 1.5 parts of a nonionic surfactant, 1 part of a polyacrylic acid-based thickener and 0.5 part of 25% ammonia water to 100 parts of a polyacrylic acid ester emulsion having a solid content of 45% and further adding 30 parts of each of the above organic phosphorus-based compounds (FR-1 to FR-6) under agitation. The obtained processing agent was left to stand at 25° C. for 24 hours to evaluate its storage stability based on the following criteria.
◯: no agglomeration and no sedimentation are seen by visual checking
X: agglomeration and sedimentation are seen by visual checking

Data set [3] is described as follows: Solubility in 20° C. water (visual check of dissolution). The note with it: distilled water at 20° C., stirred 1 minute per addition. The procedure: Dissolution was visually checked after the organic phosphorus-based compound was added little by little to 100 g of distilled water adjusted to 20° C. and stirred for 1 minute for each addition.
Data set [4] can be described thus: Particle size distribution by Microtrack HRA. The procedure:
The volume standard median diameter (vi), the maximum particle diameter (vii) and the standard deviation (viii) can be measured by using the microtrack of Nikkiso Co., Ltd. and measurement conditions that the particles should be transparent and that the particle shape should be nonspherical.
They were measured by using the Microtrack HRA of Nikkiso Co., Ltd. The measurement conditions are that the particles should be transparent, the particle shape should be nonspherical, the refractive index of the particles should be 1.60, and the refractive index of the solvent should be 1.33.

Molecules are shown by their SMILES.

For the compound `O=P1(Cc2ccccc2)OCC2(CO1)COP(=O)(Cc1ccccc1)OC2` (single isomer, unassigned) [FR-1, 2,4,8,10-tetraoxa-3,9-diphosphaspiro[5.5]undecane,3,9-dibenzyl-3,9-dioxide], the “(v) ΔpH value” in data set [1] came out at 0.5. Also, the Stability result in data set [2] is recorded as “◯”. The “(ii) Solubility in 20° C. water” value in data set [3] is 0.01 g/100 g of water. In addition, in data set [4], the “(vi) Volume standard median diameter” value turned out to be 18 μm and the “(vii) Maximum particle diameter” value stood at 150 μm.

As for `O=P1(Cc2ccccc2)OCC2(CO1)COP(=O)(Cc1ccccc1)OC2` (single isomer, unassigned) [FR-5, 2,4,8,10-tetraoxa-3,9-diphosphaspiro[5.5]undecane, 3,9-dibenzyl-3,9-dioxide], in data set [1], the “(v) ΔpH value” worked out at 0.5. Further, the Stability result in data set [2] is “◯”. The “(ii) Solubility in 20° C. water” value in data set [3] is recorded as 0.01 g/100 g of water. For the same compound, in data set [4], the “(vi) Volume standard median diameter” value amounted to 40 μm and the “(vii) Maximum particle diameter” value was found to be 300 μm.

Take `O=P1(Cc2ccccc2)OCC2(CO1)COP(=O)(Cc1ccccc1)OC2` (single isomer, unassigned) [FR-6, 2,4,8,10-tetraoxa-3,9-diphosphaspiro[5.5]undecane,3,9-dibenzyl-3,9-dioxide]: the “(v) ΔpH value” in data set [1] is 1.3. Also, the Stability result in data set [2] was “X”. Moreover, the “(ii) Solubility in 20° C. water” value in data set [3] was 0.01 g/100 g of water. In data set [4], the “(vi) Volume standard median diameter” value is given as 21 μm and the “(vii) Maximum particle diameter” value is given as 140 μm.

For the compound `CC(c1ccccc1)P1(=O)OCC2(CO1)COP(=O)(C(C)c1ccccc1)OC2` (stereo not drawn) [FR-2, 2,4,8,10-tetraoxa-3,9-diphosphaspiro[5.5]undecane,3,9-diα-methylbenzyl-3,9-dioxide], the “(v) ΔpH value” in data set [1] stood at 0.6. In addition, the Stability result in data set [2] is “◯”. Also, the “(ii) Solubility in 20° C. water” value in data set [3] is given as 0.01 g/100 g of water. Further, in data set [4], the “(vi) Volume standard median diameter” value is on record as 20 μm and the “(vii) Maximum particle diameter” value is listed as 160 μm.

In the case of `O=P1(CCc2ccccc2)OCC2(CO1)COP(=O)(CCc1ccccc1)OC2` (stereo not drawn) [FR-3, 2,4,8,10-tetraoxa-3,9-diphosphaspiro[5.5]undecane,3,9-di(2-phenylethyl)-3,9-dioxide], the “(v) ΔpH value” in data set [1] is 0.3. In addition, in data set [2], the Stability result is recorded as “◯”. The “(ii) Solubility in 20° C. water” value in data set [3] is 0.01 g/100 g of water. Moreover, in data set [4], the “(vi) Volume standard median diameter” value is listed as 22 μm and the “(vii) Maximum particle diameter” value is given as 140 μm.

As for `O=P1(C(c2ccccc2)c2ccccc2)OCC2(CO1)COP(=O)(C(c1ccccc1)c1ccccc1)OC2` (stereo not drawn) [FR-4, 2,4,8,10-tetraoxa-3,9-diphosphaspiro[5.5]undecane, 3,9-bis(diphenylmethyl)-3,9-dioxide], in data set [1], the “(v) ΔpH value” turned out to be 0.7. In addition, the Stability entry in data set [2] is reported as “◯”. In addition, the “(ii) Solubility in 20° C. water” value in data set [3] is recorded as 0.01 g/100 g of water. In data set [4], the “(vi) Volume standard median diameter” value was determined as 25 μm and the “(vii) Maximum particle diameter” value worked out at 180 μm.
